Measured values taken from patent publication US20190240184A1, “PHARMACEUTICAL APPLICATIONS FOR (S)-N[…] SALTS THEREOF” (NATIONAL UNIVERSITY CORPORATION CHIBA UNIVERSITY, priority 2016, published 2019).

Experiments:
[1] = Plasma concentration of (S)-norketamine after peroral administration of (S)-norketamine derivative; assay type: in vivo; settings: mice; 30 mg/kg perorally; 15 min to 8 h
Description: The pharmacokinetic profile of an (S)-norketamine derivative was investigated through measurement of the blood concentration of (S)-norketamine after administration thereof.
The obtained blood plasma was placed into a polypropylene microtube and stored in a freezer at −80° C.
The plasma concentration of (S)-norketamine was measured by the method described below.
STD (standard) solution (10 μL) was added to mouse plasma (20 μL) as a calibration curve sample. A mixture of acetonitrile/water (1:1, v/v) was added to a sample, a blank sample, and a QC (quality control) sample.
Agitation was performed for 10 seconds, and I.S. (internal standard) solution (Norketamine-D4: 10 ng/mL) (100 μL) was added. A mixture of acetonitrile and methanol (=9:1) was added to the blank sample.
Agitation was performed for 30 seconds, followed by centrifugation at room temperature and 16,000×g for three minutes. The supernatant (80 μL) was transferred to a new microtube, and 0.001 mol/L ammonium hydrogen carbonate (100 μL) was added to the microtube.
Agitation was performed for 10 seconds, followed by centrifugation at room temperature and 16,000×g for two minutes.
The (S)-norketamine concentration was measured through HPLC.
The measurement conditions are as follows.

normal mice [2] = experiment: Conditioned place preference test (CPP) (side effects); settings: 20 mg/kg; vs saline
normal mice [3] = experiment: Prepulse inhibition test (side effects)
normal mice [4] = experiment: Hyperlocomotion test (side effects); settings: for time after administration at which enhanced amount of locomotion returned to a normal value: ketamine 10 mg/kg, norketamine 20 mg/kg, (S)-ketamine 10 mg/kg
LPS-treated mice [5] = experiment: Tail suspension test (TST) in LPS-induced inflammatory model of depression; settings: for immobility time in TST: TST 3 h after
LPS-treated mice [6] = experiment: Forced swimming test (FST) in LPS-induced inflammatory model of depression; settings: for immobility time in FST: FST 5 h after
[7] = system: social defeat stress mice; experiment: 1% sucrose preference test (SPT) in social defeat stress model of depression; settings: 10 mg/kg intraperitoneally, seven days after administration
[8] = system: social defeat stress mice; experiment: Golgi staining, spine density in brain regions of social defeat stress mice; assay type: in vivo; settings: 10 mg/kg intraperitoneally, eight days after administration
[9] = system: social defeat stress mice; experiment: Forced swimming test (FST) in social defeat stress model of depression; assay type: in vivo; settings: 10 mg/kg intraperitoneally; for immobility time in FST: single administration
Description: (§1) The TST was performed as follows. […] The FST was performed as follows. […] The LMT was performed as follows. […] The SPT was performed as follows.

[10] = system: social defeat stress mice; experiment: Tail suspension test (TST) in social defeat stress model of depression; assay type: in vivo; settings: 10 mg/kg intraperitoneally; for immobility time in TST: single administration
Description: as §1

NMDA receptor = settings: Non-Patent Document 12; cited from earlier work
[11] = 10 mg/kg intraperitoneally, vs LPS-treated mice administered saline
[12] = 10 mg/kg each, intraperitoneally
[13] = 5, 10, or 20 mg/kg intraperitoneally 23 h after LPS

| Structure (SMILES) | CPP score (conditioned place preference, drug dependence) (normal mice [2]) | time after administration at which enhanced amount of locomotion returned to a normal value (normal mice [4]) | immobility time in TST (LPS-treated mice [5]; [11]) | immobility time in FST (LPS-treated mice [6]; [11]) | sucrose consumption preference in SPT [7] | spine density in frontal cortex (prelimbic region), hippocampus CA3 region and hippocampal dentate gyrus [8] | spine density in nucleus accumbens (core region and shell region) [8] | immobility time in FST [9] | immobility time in TST [10] | other results |
| --- | --- | --- | --- | --- | --- | --- | --- | --- | --- | --- |
| Cc1oc(=O)oc1COC(=O)N[C@]1(c2ccccc2Cl)CCCCC1=O [Compound 1, (5-methyl-2-oxo-1,3-dioxol-4-yl)methyl-(S)-(1-(2-chlorophenyl)-2-oxocyclohexyl) carbamate] | – | – | – | – | – | – | – | – | – | decrease of blood concentration compared with (S)-norketamine derivative (2) [1]: decreased more slowly |
| CN[C@]1(c2ccccc2Cl)CCCCC1=O [(S)-ketamine] | significantly increase the CPP score | 30 min | – | – | – | – | – | – | – | prepulse inhibition deficit (normal mice [3]; 10 mg/kg): induced prepulse inhibition deficit; amount of locomotion (hyperlocomotion effect) (normal mice [4]; 10 mg/kg, 10 minutes and 20 minutes after administration, vs normal mice administered saline): significant increase in amount of locomotion |
| CNC1(c2ccccc2Cl)CCCCC1=O (racemic) [ketamine] | – | 20 min | significantly reduced immobility time | significantly reduced immobility time | – | – | – | – | – | prepulse inhibition deficit (normal mice [3]; 10 mg/kg, prepulse stimulation at 77 dB or 81 dB): induced prepulse inhibition deficit; amount of locomotion (hyperlocomotion effect) (normal mice [4]; 10 mg/kg, 10 minutes after administration, vs normal mice administered saline): significant increase in amount of locomotion |
| N[C@]1(c2ccccc2Cl)CCCCC1=O [(S)-norketamine] | did not increase the CPP score | – | – | – | significantly restored the sucrose consumption preference | significantly increased the spine density | not affected | significantly reduced immobility time | significantly reduced immobility time | antidepressant effect in FST compared with (R)-norketamine [9]: significantly higher antidepressant effect than (R)-norketamine; prepulse inhibition deficit (normal mice [3]; 5, 10, or 20 mg/kg): did not induce prepulse inhibition deficit; antidepressant effect in TST compared with (R)-norketamine [10]: significantly higher antidepressant effect than (R)-norketamine; amount of locomotion (hyperlocomotion effect) (normal mice [4]; 5, 10, or 20 mg/kg): did not affect the amount of locomotion |
| NC1(c2ccccc2Cl)CCCCC1=O (centres unmarked) [norketamine] | – | 20 min | significantly reduced immobility time | significantly reduced immobility time | – | – | – | – | – | antidepressant effect in TST compared with ketamine (LPS-treated mice [5]; [12]): significantly stronger compared to ketamine; immobility time in TST (LPS-treated mice [5]; [13]): dose-dependently reduced immobility time; prepulse inhibition deficit (normal mice [3]; 5 mg/kg or 10 mg/kg): did not induce prepulse inhibition deficit; prepulse inhibition deficit (normal mice [3]; 20 mg/kg, prepulse stimulation at 81 dB): significantly induced prepulse inhibition deficit; antidepressant effect in FST compared with ketamine (LPS-treated mice [6]; [12]): significantly stronger compared to ketamine; immobility time in FST (LPS-treated mice [6]; [13]): dose-dependently reduced immobility time; affinity for an NMDA receptor, factor lower than ketamine (NMDA receptor): about 6.8 fold; amount of locomotion (hyperlocomotion effect) (normal mice [4]; 5 mg/kg or 10 mg/kg): did not affect the amount of locomotion; amount of locomotion compared with ketamine (10 mg/kg) (normal mice [4]; 20 mg/kg, 10 minutes after administration): significantly lower than that in the mice administered ketamine (10 mg/kg); amount of locomotion (hyperlocomotion effect) (normal mice [4]; 20 mg/kg, 10 minutes after administration, vs normal mice administered saline): significant increase in amount of locomotion |
| N[C@@]1(c2ccccc2Cl)CCCCC1=O [(R)-norketamine] | – | – | – | – | did not restore it | did not exhibit the effect of increasing the spine density | not affected | did not exhibit an antidepressant effect | did not exhibit an antidepressant effect | – |
